Key:
[1] = tested on: Proteobacteria (Enterobacteriaceae); test: Fecal shotgun metagenomics of hospitalized liver disease patients stratified by lactulose exposure: Enterobacteriaceae/Proteobacteria abundance; format: in vivo, human; settings: fecal samples from lactulose-treated patients
[2] = tested on: VRE (vancomycin resistant Enterococcus faecium, ATCC 700221); test: VRE growth curves in B. longum conditioned media, SCFA- or lactulose-supplemented media; format: cell-based; settings: 50 mM lactulose in media
Protocol: FIGS. 11A-11F: Bifidobacterium longum supernatant inhibits VRE growth in vitro. (A) Schematic of experimental design for VRE growth in B. longum conditioned media (CM). B. longum was grown in BHIS for 24-hours prior to collecting and filtering the supernatant. VRE growing at steady state was then diluted to a low density (OD600=0.05) prior to inoculating in various dilutions of B. longum conditioned media in fresh BHIS. (B) VRE growth curves in 100%, 50%, 12.5%, and 0% CM with the pH of the 4 concentrations of CM in BHIS shown in the right portion of this panel. […] (E) VRE was grown in minimal media containing either no additive (blue) or 50 mM lactulose, and OD600 was measured over time. (F) VRE was grown in BHIS with or without 50 mM lactulose, and OD600 was measured over time. […]
The Bifidobacteria longum strains MSK.11.12 and DFI.2.45 were previously derived from two distinct healthy donor stool samples and whole genome sequenced (BioSample ID: SAMN19731851 and SAMN22167409). […] All growth curves were obtained in anaerobic culture conditions at 37° C. on a BioTek EPOCH2 microplate reader with BioTek Gen 5 3.11 software. Growth curves were analyzed in GraphPad Prism Version 9.4.0. Lactulose concentrations in were measured using the EnzyChrom™ Lactulose Assay Kit (ELTL-100).

OC[C@H]1O[C@@H](O[C@@H]2[C@@H](CO)OC(O)(CO)[C@H]2O)[C@H](O)[C@@H](O)[C@H]1O (mixture of isomers) [Lactulose, lactulose]
Enterobacteriaceae abundance, mean [1]: 7.9%
Enterobacteriaceae abundance, median [1]: 0.9%
Enterobacteriaceae abundance, range [1]: 0.0-98.8%
VRE growth [2]: modestly augments

Reference: US20250186470A1, “Compositions and Methods Using Lactulose for Treating Disease” (THE UNIVERSITY OF CHICAGO, priority 2023, published 2025)
